Reference: US20260234173A1, “STRUCTURED MOLECULAR VECTORS FOR ANTI-INFLAMMATORY COMPOUNDS AND USES THEREOF” (Universite Claude Bernard Lyon 1, priority 2019, published 2026)

Legend:
[1] = Recovery of weight loss in rats after status epilepticus; format: in vivo, rat; details: 10 mg/Kg i.p. every day for 7 days after Pilo-SE
Procedure: Rats were subjected to pilocarpine-induced status epilepticus at day 0) and were administered (10 mg/Kg, i.p) Synaptamide phosphonate (SynPn) every day for 7 days. The weight of animals was daily measured. Results are described in FIG. 20. Results are expressed as the percentage of weight of animals (10-15 animals/group) at day 0. Statistical differences between Controls/SE+NaCl (*: p<0.05, ***: p<0.001) and between SE+NaCl/SE+SynPn (#: p<0.05).

[2] = test system: immortalized human microglia (IHM); assay: Expression of inflammation markers in immortalized human microglia activated by IL-1β (RT-qPCR); format: cell-based; details: pre-treated with 150 nM and 300 nM 3 hours before IL-1β (3 ng/mL); RNA after 5 hours
Procedure: Immortalized human microglia (IHM; Innoprot, Derio, Spain) were seeded at 13,000 cells/cm^2 in T75 flasks coated with type I human collagen (10 μL/mL, Coating Matrix Kit, Innoprot). The medium was formulated for optimal growth of human brain-derived microglia in vitro, and contained 1% pen/strep, 1% of microglia growth supplement and 5% fetal bovine serum (Microglial Cell Medium Kit, Innoprot).
IHM were seeded (10,000 cells/cm^2) in type 1 collagen-coated 6-well plates. When cell culture was about 80% confluent, IL-1β (R&D Systems) was added to the culture medium at 0.5 ng/mL, 1.5 ng/mL or 3.0 ng/mL. At t=0, each well received 1 mL of medium only (controls) or 1 mL of medium containing the desired concentration of IL-1β. Cells were harvested at t=0 h, t=3 h, t=8 h and t=24 h. Each tested condition was repeated as triplicates.
The effect of synaptamide phosphonate has been tested as illustrated in FIG. 5. […]
PCR amplification of targeted cDNAs was performed using the Rotor-Gene Q system (Qiagen) and the QuantiTect SYBR Green PCR Kit (Qiagen).
The ScDNA copy number measured after qPCR was used to estimate the RT step yield for each sample, taking into account that the same number of SmRNA copies was initially present in all samples before RT step. This yield made it possible to standardize the values obtained for all the genes of interest measured from the same sample. […]

Compound: CCC=CCC=CCC=CCC=CCC=CCC=CCCC(=O)NCCP(=O)(O)O [synaptamide phosphonate]
- recovery of weight loss after SE [1]: facilitates the recovery of weight loss
- IL-1β-mediated cytokine and chemokine gene induction [2]: dramatic reduction
